This is an account of results in ChEMBL document CHEMBL3576797, “Pyridopyrimidinone Derivatives as Potent and Selective c-Jun N-Terminal Kinase (JNK) Inhibitors” (ACS Med Chem Lett, 2015).

A word on the half-life: it is the time in which the quantity being followed falls by half. A higher half-life goes with slow loss. Broadly, the bioavailability is dose-corrected exposure relative to a reference, in per cent. Read a high bioavailability as good availability. In general, Cmax refers to the peak of the concentration-time curve. The AUC is concentration integrated over time. A higher AUC goes with high exposure. The clearance is the rate of elimination divided by the concentration. The low end stands for inefficient removal, the high end for efficient removal. The term Vd denotes a proportionality between amount in the body and measured concentration, not a real space. A higher Vd goes with wide distribution into tissue.

Molecules are shown by their SMILES. Some results are limits rather than exact numbers.

A short description of series [1]: Half life in human liver microsomes. The series is classed as ADME. A general note: Microsomes from liver hold many membrane-bound enzymes, among them those of drug oxidation.
Series [2] in a line: Half life in mouse liver microsomes. The series is classed as ADME.
The nature of series [3]: Oral bioavailability in mouse at 3 mg/kg by LC-MS/MS analysis. In kind it is ADME, organism-based. The conditions noted are these: in vivo.
Series [4] in a line: Cmax in mouse at 0.5 mg/kg, iv by LC-MS/MS analysis. In kind it is ADME, organism-based. Also noted: dose 0.5 mg/kg, route intravenous. The conditions noted are these: in vivo.
The nature of series [5]: AUC in mouse at 0.5 mg/kg, iv by LC-MS/MS analysis. The conditions noted are these: in vivo. In kind it is ADME, organism-based.
Series [6] is described as follows: Half life in mouse at 0.5 mg/kg, iv by LC-MS/MS analysis. The series is classed as ADME, organism-based. Particulars: in vivo.
The nature of series [7]: Clearance in mouse at 0.5 mg/kg, iv by LC-MS/MS analysis. In kind it is ADME, organism-based. The conditions noted are these: in vivo.
Series [8] is described as follows: Volume of distribution in mouse at 0.5 mg/kg, iv by LC-MS/MS analysis. The series is classed as ADME, organism-based. The conditions noted are these: in vivo.

Regarding `CC(C)n1c(=O)ccc2cnc(N[C@H]3CC[C@H](O)CC3)nc21`, the results for the half-life in series [1] and in series [2] were more than 120 min and 23 min, respectively. This molecule yielded a bioavailability in series [3] of 10%.
On to `CC(C)C(=O)N[C@H]1CC[C@H](Nc2ncc3ccc(=O)n(C(C)C)c3n2)CC1`, for which the values for the half-life in series [1], in series [2] and in series [6] were 44 min, 19 min and 30 min, respectively. Further, in series [4], the highest level (Cmax) was 1000 nM. Further, in series [5], the AUC is 0.7 µM·h. In addition, the clearance in series [7] came out at 33 mL/min/kg. For the same molecule, the Vd in series [8] was determined as 1.3 L/kg. In addition, the bioavailability in series [3] is 66%.
For the molecule `CCNC(=O)N[C@H]1CC[C@H](Nc2ncc3ccc(=O)n(C(C)C)c3n2)CC1`, the half-life in series [1] was 46 min; in series [2], 17 min; in series [6], 18 min. This molecule also had a Cmax in series [4] of 600 nM. Further, the AUC in series [5] is 0.3 µM·h. This molecule also showed a clearance in series [7] of 72 mL/min/kg. Further, the Vd in series [8] is 1.9 L/kg. This molecule also showed a bioavailability in series [3] of 100%.
For the molecule `CC(C)NC(=O)N[C@H]1CC[C@H](Nc2ncc3ccc(=O)n(C(C)C)c3n2)CC1`, the results for the half-life in series [1], in series [2] and in series [6] were 76 min, 22 min and 66 min, respectively. Besides, in series [4], the concentration peaked (Cmax) at 900 nM. In series [5], this molecule had an AUC of 0.8 µM·h. In series [7], this molecule gave a clearance of 28 mL/min/kg. The Vd in series [8] is 1.8 L/kg. For the same molecule, the bioavailability in series [3] was determined as 87%.
Consider `CCNC(=O)N[C@H]1CC[C@@H](Nc2ncc3ccc(=O)n(C(C)C)c3n2)CC1`, for which the results for the half-life in series [1] and in series [2] were 16 min and 8 min, respectively.
In the case of `CCNC(=O)N1CCC(Nc2ncc3ccc(=O)n(C(C)C)c3n2)CC1`, the half-life is 65 min in series [1], 14 min in series [2] and 24 min in series [6]. The peak level in series [4] (Cmax) was 1100 nM. Moreover, the AUC in series [5] turned out to be 0.7 µM·h. Also, the clearance in series [7] came out at 33 mL/min/kg. In series [8], the Vd is 1 L/kg. The bioavailability in series [3] was found to be 43%.
`CC(C)NC(=O)N[C@H]1CC[C@H](Nc2ncc3ccc(=O)n(C4CCCC4)c3n2)CC1`: the half-life is 7 min in series [1] and 5 min in series [2].
